Several values for one entry are separate records, joined by “and”; a condition that tells them apart may be missing. Identical values can stand only once.
What was measured:
[1] = system: C3H-D/D (Scn8a-N1768D) adult mice; test: Survival and seizure frequency, adult C3H-D/D mice followed until death; assay type: in vivo, mouse; conditions: for #Days survived postTC / #TCs / #TCs/day (PostTC) / #gaps (av) / Age at Death / Age at Onset / gap days / mean gap length: Treated; for observed standard effect size, Kaplan-Meier survival: treated versus untreated
Source text: Mouse strains: The C57BL/6J-N1768D congenic mouse (B6-D/+) was used for phenotyping, RNAseq, and BBB studies. In addition, a hybrid strain that was produced by backcross breeding to transfer the Scn8a-N1768D allele from the B6 to the C3H/HeJ strain background was used to further assess the effect of CND on survival and seizure frequency. After constructing an F1 by crossing male B6-D/+ heterozygotes to female C3H/HeJ, five rounds of backcrossing (N6) produced a […] and 98.5% C3H/HeJ-N1768D line (C3H-D/+). Sister-brother mating maintained the 98.5% C3H background. […] C3H-D/D mice have a delayed seizure onset (˜40-45 days) and an extended survival (65-70 days) with intermittent bouts of TCs (FIG. 1A).
Phenotyping: Female and male mice on both the B6 and C3H backgrounds were housed in sex-specific groups of 3-4 per cage in a pathogen-free mouse facility with a 14 h light/10 h dark cycle (lights turned on at 5 am). A 24/7 video monitoring system was utilized to collect seizure data, with infrared illumination to monitor behavior during the dark period. Seizures were counted as individual TCs. Adult mice were followed from the age of 6 weeks, a period of time well before seizure onset, in order to identify the day of seizure onset. A seizure bout was defined as a cluster of seizures on consecutive days, and a gap as a seizure-free period of 3 days or more.
Preparation of CND suspension for injections and oral dosing: Juvenile B6-D/D and adult B6-D/+ mice were given subcutaneous (s.c.) injections with either CND (2-4 mg/kg/day; doses that fall within the FDA-approved range for CND in both adults and children) or vehicle (VEH) (Sigma-Aldrich) (FIG. 1B). Oral dosing of adults was performed by thoroughly mixing 160 μl of suspension containing 1.28 mg of CND or VEH with 5 g of pure (organic) peanut butter in a petri dish. Mice were given 1 g pellet per mouse each day. Pellets were weighed each day to record the amount consumed, and 24/7 video was used to verify that each mouse was consuming the pellet. An average of 0.79 g (±0.36 g) was consumed by an adult mouse (˜20-25 g), corresponding to 9.1±4.2 mg/kg/day. No correlations were found for the amount of CND consumed and lifetime survival or number of TCs.
Data for the untreated mice were previously reported. Table 1 also provides C3H-D/D summary statistics for female untreated (N=15) and treated (N=15) and male untreated (N=27) and treated (N=16) monitored until the time of death.

[2] = system: hippocampal gene expression; test: RNAseq and pathway analysis of hippocampal tissue, B6-D/D juveniles; assay type: in vivo, mouse
Experimental: Transcriptome studies: B6-D/D and wild-type (+/+) (n=3) were administered CND or VEH by s.c. injection for a period of 5 days starting at P15 and sacrificed for removal of hippocampal tissue (n=12) (FIG. 1B). Adult B6-D/+ male (n=3) mice were administered CND or VEH pellets as described above at the time of seizure onset and monitored for seizures for an extended period before sacrifice and removal of hippocampal tissue (100-160 d) (i.e., to match the age at which a VEH-treated male B6-D/+ experience ˜20 TCs) (FIG. 1B).
RNA sequencing: Hippocampal tissues from 21 mice were obtained according to a sampling strategy that compared (1) untreated (VEH only) and treated B6-D/D (n=3) with age-matched B6-+/+ controls (n=3 per group), (2) untreated (VEH only) male B6-D/+ mice that had experienced ˜20 TCs (n=3 per group) with age-matched B6-+/+ controls (n=3 per group), and (3) male B6-D/+ mice that were treated with CND for an extended period (n=3 per group). Brains of treated and untreated mice were dissected to yield tissue samples from the hippocampus. Bulk tissue was stored in RNALater (Qiagen, Valencia, CA) at −80 degrees centigrade. The technique for analyzing hippocampal gene expression was performed. Briefly, RNA was isolated from hippocampal tissue, and initial QC was performed. Libraries were constructed using a stranded mRNA-Seq Kit, and average fragment size was assessed. After concentrations were determined with an adaptor-specific qPCR kit, equimolar samples were pooled and clustered for sequencing on a Novaseq instrument (Illumina). Sample data were demultiplexed, trimmed, and quality filtered, and Fastq files were splice-aligned against the […] reference genome using STAR aligner version 2.5.2b. Gene expression counts were obtained using htseq-count version 0.6.1. Both splice alignment and counting were performed with Ensembl Annotation of the NCBI reference genome, and raw counts were analyzed with edgeR version 3.16.5.
Data and pathway analysis: Results of statistical summaries were generally expressed as mean±SD. Kaplan-Meier survival curves were used to test for differences in survival. […] A ‘perturbation signature’ approach was used to identify genome-wide differences in transcript abundance between transgenic mice (i.e., D/+, D/D, or +/+) that were untreated (VEH) or treated with CND. Differential expression analysis was performed. Briefly, the exactTest function was utilized in edgeR, and gene expression counts were first normalized using the calcNormFactors function. DEG analysis was performed on treatment versus control groups at two different ages using three biological replicates per group, which has been shown in power analyses to be sufficient to yield a true positive rate greater than 80% under the conditions used here. Multidimensional scaling (MDS) plots were constructed using the ‘plotMDS’ function in edgeR, which plots samples on a 2D scatterplot so that distances on the plot approximate the typical log 2 fold changes between samples. […] Rather than focusing on any single gene, bioinformatic analyses of our RNAseq data identified the most statistically significant biological pathways that were enriched given the set of DEGs in each experiment.

[3] = CND-treated B6-D/D, FDR-adjusted P-value <0.05
[4] = treated juveniles, FDR cutoff 0.25

CCOc1nc2cccc(C(=O)O)c2n1Cc1ccc(-c2ccccc2-c2nnn[nH]2)cc1 [CND, candesartan]
#Days survived postTC ([1]; C3H Females (D/D)): 68.9 days | #TCs ([1]; C3H Females (D/D)): 30.1 TCs | #TCs/day (PostTC) ([1]; C3H Females (D/D)): 0.51 TCs/day | #gaps (av) ([1]; C3H Females (D/D)): 7.5 | Age at Death ([1]; C3H Females (D/D)): 117.4 ± 28.0 days and 117.4 days | Age at Onset ([1]; C3H Females (D/D)): 48.5 days | gap days ([1]; C3H Females (D/D)): 44.0 days | mean gap length ([1]; C3H Females (D/D)): 5.8 days | #Days survived postTC ([1]; C3H Males (D/D)): 68.9 days | #TCs ([1]; C3H Males (D/D)): 37.4 TCs | #TCs/day (PostTC) ([1]; C3H Males (D/D)): 0.57 TCs/day | #gaps (av) ([1]; C3H Males (D/D)): 9.8 | Age at Death ([1]; C3H Males (D/D)): 117.1 ± 20.4 days and 117.1 days | Age at Onset ([1]; C3H Males (D/D)): 48.1 ± 5.1 days and 48.1 days | gap days ([1]; C3H Males (D/D)): 44.4 days | mean gap length ([1]; C3H Males (D/D)): 4.7 days | increase in survival, treated versus untreated ([1]; C3H-D/D females): 47.5% | reduction in post-onset seizure frequency ([1]; C3H-D/D females): 78.4% | observed standard effect size, Kaplan-Meier survival ([1]; C3H-D/D females): 0.83 | increase in survival, treated versus untreated ([1]; C3H-D/D males): 49.2% | reduction in post-onset seizure frequency ([1]; C3H-D/D males): 48.0% | observed standard effect size, Kaplan-Meier survival ([1]; C3H-D/D males): 0.79 | TREATED z-score, upstream regulator ACKR2 ([2]; B6-D/D Juveniles): −2.00 | TREATED z-score, upstream regulator IL1B ([2]; B6-D/D Juveniles): 1.76 | TREATED z-score, upstream regulator PTGER4 ([2]; B6-D/D Juveniles): −2.43 | TREATED z-score, upstream regulator SIRT1 ([2]; B6-D/D Juveniles): −2.83 | TREATED z-score, upstream regulator TGFB1 ([2]; B6-D/D Juveniles): 0.42 | TREATED z-score, upstream regulator TNF ([2]; B6-D/D Juveniles): 1.32 | TREATED z-score, upstream regulator lipopolysaccharide ([2]; B6-D/D Juveniles): 3.19 | number of down-regulated DEGs [2, 3]: 25 | number of up-regulated DEGs [2, 3]: 50 | z-score, EIF2 Signaling pathway [2, 4]: 3.2 | z-score, Granzyme A Signaling pathway [2, 4]: −3.4 | z-score, Mitochondrial Dysfunction pathway [2, 4]: −3.8 | z-score, Oxidative Phosphorylation pathway [2, 4]: 5.0 | odds ratio, enhancement of ETC gene activation in treated versus untreated ([2]; treated juveniles, FDR≤0.25, 95% CI=3.5-979): 23 fold

From patent US20250114335A1, “METHODS AND COMPOSITIONS FOR THE TREATMENT OF EPILEPSY” (ARIZONA BOARD OF REGENTS ON BEHALF OF THE UNIVERSITY OF …, priority 2022, published 2025)
